Experimental data reported in patent US20240360081A1, “SULFONAMIDE OREXIN RECEPTOR AGONISTS AND USES THEREOF” (Jazz Pharmaceuticals Ireland Limited, priority 2021, published 2024).

Target: T1, human recombinant OX2 (hOX2) receptor expressed in CHO cells (Homo sapiens, UniProt O43614)
T1 construct: host or cells: CHO cells (hOX2-CHO)
T1 sequence (O43614 1-444): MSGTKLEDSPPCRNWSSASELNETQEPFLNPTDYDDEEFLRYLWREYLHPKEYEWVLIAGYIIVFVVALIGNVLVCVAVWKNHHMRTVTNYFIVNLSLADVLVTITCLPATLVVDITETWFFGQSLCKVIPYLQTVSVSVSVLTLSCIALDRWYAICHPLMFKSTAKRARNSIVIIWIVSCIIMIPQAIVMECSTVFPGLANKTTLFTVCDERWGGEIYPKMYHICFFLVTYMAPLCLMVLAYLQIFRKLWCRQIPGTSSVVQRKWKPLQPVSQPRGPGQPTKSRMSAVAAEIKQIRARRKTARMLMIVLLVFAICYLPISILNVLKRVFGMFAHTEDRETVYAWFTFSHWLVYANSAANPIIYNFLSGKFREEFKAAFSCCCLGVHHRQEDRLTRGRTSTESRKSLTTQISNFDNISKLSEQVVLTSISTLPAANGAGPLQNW
Assay: IP-1 accumulation assay (IP-One HTRF) in hOX2-CHO cells
Format: cell-based
Conditions: 60 min at 37° C., 11 points CRC, response as % of maximal OX-A response
Description: The accumulation of Inositol-1 Monophosphate (IP-1) was measured using IP-One HTRF® Terbium cryptate based assay (Cisbio) in human recombinant OX1 (hOX1) and at OX2 (hOX2) receptors expressed in CHO cells (DiscoverX) according to the manufacturer's instructions for cells tested in suspension.
hOX1-CHO and hOX2-CHO cells were seeded into white 384-well plates at a density of 20,000 cells/well in Hank's Balanced Salt Solution (HBSS) containing 20 mM HEPES pH 7.4, 50 mM, LiCl and 0.1% and Bovine Serum Albumin (BSA).
Compounds of the present disclosure were tested in a 11 points concentration response curve (CRC) serially diluted in neat DMSO at 200 fold concentrations and added by Echo acoustic liquid handling (Labcyte) to the cells (0.5% DMSO final in the assay). After 60 min of incubation at 37° C. detection reagents, IP1-d2 tracer and anti-IP1-cryptate were diluted in lysis buffer according to the manufacturer's descriptions and added to the cells.
Following 60 min incubation at room temperature, time-resolved fluorescence (HTRF) was measured at 615 nm and 665 nm by Envision Multilabel reader (Perkin Elmer) and the HTRF ratio (A665/A615x104) was calculated.
The IP-1 accumulation response was expressed as percentage of the maximal OX-A response.
Curve fitting and EC50 estimations were carried out using a four-parameter logistic model using XLfit Software. Mean data of EC50 are calculated from at least two independent experiments performed in duplicates.
In the Tables, below Category A corresponds to compounds displaying an […]<100 nM, Category B between 100 nM and 1,000 nM, Category C between 1,000 nM and 10,000 nM and Category D above 10,000 nM.

Row | SMILES | EC50 [µM]
1 | Cc1cc(C)c(=O)n(C(CNS(=O)(=O)N(C)C)CO[C@H]2CC[C@@H](c3cccc(F)c3)CC2)c1 (single isomer, unassigned; isomer 2) [Example 2as, (S or R) 1-[1-[(dimethylsulfamoyl)amino]-3-{[(CIS)-4-(3-fluorophenyl)cyclohexyl]oxy}propan-2-yl]-3,5-dimethyl-1,2-dihydropyridin-2-one-Isomer 2] | 0.1 to 1
2 | Cc1cc(C)c(=O)n(C(CNS(=O)(=O)CF)CO[C@H]2CC[C@@H](c3cccc(F)c3)CC2)c1 (single isomer, unassigned; isomer 2) [Example 2av, (S or R) N-[2-(3,5-dimethyl-2-oxo-1,2-dihydropyridin-1-yl)-3-{[(CIS)-4-(3-fluorophenyl)cyclohexyl]oxy}propyl]-1-fluoromethanesulfonamide-Isomer 2] | 0.1 to 1
3 | CCc1cccn(C(CNS(C)(=O)=O)CO[C@H]2CC[C@@H](c3ccccc3)CC2)c1=O (single isomer, unassigned; isomer 2) [Example 2b, (S or R) N-[2-(3-ethyl-2-oxo-1,2-dihydropyridin-1-yl)-3-{[(CIS)-4-phenylcyclohexyl]oxy}propyl]methanesulfonamide-Isomer 2] | 0.1 to 1
4 | Cc1cc(C)c(=O)n(C(CNS(C)(=O)=O)COC2CCN(c3ncc(F)cn3)CC2)c1 (single isomer, unassigned; isomer 2) [Example 2ba, (S or R) N-[2-(3,5-dimethyl-2-oxo-1,2-dihydropyridin-1-yl)-3-{[1-(5-fluoropyrimidin-2-yl)piperidin-4-yl]oxy}propyl]methanesulfonamide-Isomer 2] | > 10
5 | CS(=O)(=O)NCC(CO[C@H]1CC[C@@H](c2ccccc2)CC1)n1cccc(F)c1=O (single isomer, unassigned; isomer 2) [Example 2h, (S or R) N-[2-(3-fluoro-2-oxo-1,2-dihydropyridin-1-yl)-3-{[(CIS)-4-phenylcyclohexyl]oxy}propyl]methanesulfonamide-Isomer 2] | > 10
6 | Cc1ccc(=O)n(C(CNS(C)(=O)=O)CO[C@H]2CC[C@@H](c3ccccc3)CC2)c1 (single isomer, unassigned; isomer 2) [Example 2k, (S or R) N-[2-(5-methyl-2-oxo-1,2-dihydropyridin-1-yl)-3-{[(CIS)-4-phenylcyclohexyl]oxy}propyl]methanesulfonamide-Isomer 2] | > 10
7 | Cc1ccn(C(CNS(C)(=O)=O)CO[C@H]2CC[C@@H](c3ccccc3)CC2)c(=O)c1C (single isomer, unassigned; isomer 2) [Example 2o, (S or R) N-[2-(3,4-dimethyl-2-oxo-1,2-dihydropyridin-1-yl)-3-{[(CIS)-4-phenylcyclohexyl]oxy}propyl]methanesulfonamide-Isomer 2] | > 10
8 | Cc1cc(C)c(=O)n(C(CNS(C)(=O)=O)CO[C@H]2CC[C@@H](c3ccccc3)CC2)c1 (single isomer, unassigned; isomer 2) [Example 2u, (S or R) N-[2-(3,5-dimethyl-2-oxo-1,2-dihydropyridin-1-yl)-3-{[(CIS)-4-phenylcyclohexyl]oxy}propyl]methanesulfonamide-Isomer 2] | 1 to 10
9 | Cc1cccn(C(CO[C@H]2CC[C@@H](c3ccccc3)CC2)C(C)NS(C)(=O)=O)c1=O (single isomer, unassigned; isomer 2) [Example 3b, (2S or 2R) and (3S or 3R) N-[3-(3-methyl-2-oxo-1,2-dihydropyridin-1-yl)-4-{[(CIS)-4-phenylcyclohexyl]oxy}butan-2-yl]methanesulfonamide—Isomer 2] | 1 to 10
10 | Cn1cccc(C(CNS(C)(=O)=O)CO[C@H]2CC[C@@H](c3ccccc3)CC2)c1=O (single isomer, unassigned; isomer 2) [Example 4b, (S or R) N-[2-(1-methyl-2-oxo-1,2-dihydropyridin-3-yl)-3-{[(CIS)-4-phenylcyclohexyl]oxy}propyl]methanesulfonamide—Isomer 2] | > 10
11 | Cc1cc(C(CNS(=O)(=O)N(C)C)CO[C@H]2CC[C@@H](c3cccc(F)c3)CC2)c(=O)n(C(F)F)c1 (single isomer, unassigned; isomer 2) [Example 5ac, (S or R) 1-(difluoromethyl)-3-[1-[(dimethylsulfamoyl)amino]-3-{[(CIS)-4-(3-fluorophenyl)cyclohexyl]oxy}propan-2-yl]-5-methyl-1,2-dihydropyridin-2-one—Isomer 2] | 0.1 to 1
12 | Cc1cc(C(CNS(C)(=O)=O)CO[C@H]2CC[C@@H](c3cccc(F)c3)CC2)c(=O)n(C)c1 (single isomer, unassigned; isomer 2) [Example 5d, (S or R) N-[2-(1,5-dimethyl-2-oxo-1,2-dihydropyridin-3-yl)-3-{[(CIS)-4-(3-fluorophenyl)cyclohexyl]oxy}propyl]methanesulfonamide—Isomer 2] | 0.1 to 1
13 | Cc1cc(C)[n+]([O-])c(C(CNS(C)(=O)=O)CO[C@H]2CC[C@@H](c3ccccc3)CC2)c1 (single isomer, unassigned; isomer 2) [Example 5l, (S or R) 2-[1-methanesulfonamido-3-{[(CIS)-4-phenylcyclohexyl]oxy}propan-2-yl]-4,6-dimethylpyridin-1-ium-1-olate—Isomer 2] | 1 to 10
14 | Cc1cc(C(CNS(=O)(=O)CF)CO[C@H]2CC[C@@H](c3cccc(F)c3)CC2)c(=O)n(C)c1 (single isomer, unassigned; isomer 2) [Example 5o, (S or R) N-[2-(1,5-dimethyl-2-oxo-1,2-dihydropyridin-3-yl)-3-{[(CIS)-4-(3-fluorophenyl)cyclohexyl]oxy}propyl]-1-fluoromethanesulfonamide—Isomer 2] | 0.1 to 1
15 | Cc1cc(C(CNS(C)(=O)=O)CO[C@H]2CC[C@@H](c3cccc(F)c3)CC2)c(=O)n(C(F)F)c1 (single isomer, unassigned; isomer 2) [Example 5z, (S or R) N-[2-[1-(difluoromethyl)-5-methyl-2-oxo-1,2-dihydropyridin-3-yl]-3-{[(CIS)-4-(3-fluorophenyl)cyclohexyl]oxy}propyl]methanesulfonamide—Isomer 2] | 1 to 10
16 | Cc1cccn(C(CO[C@H]2CC[C@@H](c3ccccc3)CC2)C(C)NS(C)(=O)=O)c1=O (single isomer, unassigned; isomer 3) [Example 3c, (2S or 2R) and (3R or 3S) N-[3-(3-methyl-2-oxo-1,2-dihydropyridin-1-yl)-4-{[(CIS)-4-phenylcyclohexyl]oxy}butan-2-yl]methanesulfonamide—Isomer 3] | > 10
17 | Cc1cccn(C(CO[C@H]2CC[C@@H](c3ccccc3)CC2)C(C)NS(C)(=O)=O)c1=O (single isomer, unassigned; isomer 4) [Example 3d, (2R or 2S) and (3S or 3R) N-[3-(3-methyl-2-oxo-1,2-dihydropyridin-1-yl)-4-{[(CIS)-4-phenylcyclohexyl]oxy}butan-2-yl]methanesulfonamide—Isomer 4] | 1 to 10
18 | CS(=O)(=O)NCC(CO[C@H]1CC[C@@H](c2ccccc2)CC1)n1ccccc1=O (stereo partly drawn) [Example 1, N-[2-(2-oxo-1,2-dihydropyridin-1-yl)-3-{[(CIS)-4-phenylcyclohexyl]oxy}propyl]methanesulfonamide] | 1 to 10
19 | Cc1cccn(C(CNS(C)(=O)=O)CO[C@H]2CC[C@@H](c3ccccc3)CC2)c1=O (stereo partly drawn) [Example 1c, N-[2-(3-methyl-2-oxo-1,2-dihydropyridin-1-yl)-3-{[(CIS)-4-phenylcyclo-hexyl]oxy}propyl] methane-sulfonamide] | 0.1 to 1
20 | CCc1cccn(C(CNS(C)(=O)=O)CO[C@H]2CC[C@@H](c3ccccc3)CC2)c1=O (stereo partly drawn) [Example 2, N-[2-(3-ethyl-2-oxo-1,2-dihydropyridin-1-yl)-3-{[(CIS)-4-phenylcyclohexyl]oxy}propyl]methanesulfonamide] | 1 to 10
21 | Cc1ccn(C(CNS(C)(=O)=O)CO[C@H]2CC[C@@H](c3ccccc3)CC2)n1 (stereo partly drawn) [Example 2aa, N-[2-(3-methyl-1H-pyrazol-1-yl)-3-{[(CIS)-4-phenylcyclohexyl]oxy}propyl]methanesulfonamide] | > 10
22 | Cc1cncn(C(CNS(C)(=O)=O)CO[C@H]2CC[C@@H](c3ccccc3)CC2)c1=O (stereo partly drawn) [Example 2aj, N-[2-(5-methyl-6-oxo-1,6-dihydropyrimidin-1-yl)-3-{[(CIS)-4-phenylcyclohexyl]oxy}propyl]methanesulfonamide] | > 10
